# Source: US20100016213A1, “USE OF A DITERPENOID COMPOUND FOR TREATING DIABETES” (National Taiwan University, priority 2008, published 2010)
# Tests used:
# Assay type in all cases: in vivo
# normal mice [1] = assay: Lowering plasma glucose level, intraperitoneal injection, normal mice; conditions: normal mice, one hour after administration
# Experimental: (§1) Normal and streptozotocin (STZ)-induced diabetic mice were administered with borapetoside A (5.0 mg/kg), borapetoside C (5.0 mg/kg), glibenclamide (5.0 mg/kg), metformin (500.0 mg/kg), or a vehicle control via intraperitoneal injection. STZ-induced diabetic mice are a well-known mouse model of type I diabetes (insulin dependent). See, e.g., Liu I M, et al., Neuroscience Letters 2001; 307: 81-84. Glibenclamide and metformin serve as two positive controls in this study.
# (§2) The plasma glucose levels of the treated mice were determined before and one hour after administration. The activity of lowering plasma glucose levels (AL) is calculated following the formula: […]
# (§3) Borapetoside C was administered to normal mice at 0.1, 1.0, 3.0, and 5.0 mg/kg and to STZ-diabetic mice at 0.1, 1.0, 3.0, and 5.0 mg/kg. The plasma glucose levels of the treated mice were examined before and after treatment.
# [2] = test system: DIO-induced diabetic mice; assay: Lowering plasma glucose level, intraperitoneal injection, diet-induced obesity diabetic mice (type II diabetes model); conditions: one hour after administration
# Experimental: Normal and diet-induced obesity diabetic mice (“DIO-induced diabetic mice) were administered with borapetoside A (5.0 mg/kg), borapetoside C (5.0 mg/kg), glibenclamide (5.0 mg/kg), metformin (500.0 mg/kg), or a vehicle control via intraperitoneal injection. DIO-induced diabetic mice are a well-known mouse model of type II diabetes (non-insulin dependent). See Liu et al., J Mol. Endocrinol. 2008.
# The plasma glucose levels of the treated mice were determined before and one hour after administration. The activities of these compounds for lowering plasma glucose levels were calculated as described above.
# Borapetoside C was administered to DIO-induced diabetic mice at 0.1, 1.0, 3.0, and 5.0 mg/kg and the plasma glucose levels were examined before and after administration. The basal plasma glucose concentration in diet-induced diabetic mice (untreated) was 174.6±7.7 mg/dL. One hour after treatment, the plasma glucose levels in mice treated with vehicle control, 0.1 mg/kg borapetoside C, 1.0 mg/kg borapetoside C, 3.0 mg/kg borapetoside C, and 5.0 mg/kg borapetoside C were 172.5±10.9 mg/dL, 170.5±6.8 mg/dL, 127.9±6.0 mg/dL, 121.3±4.3 mg/dL and 119.9±4.6 mg/dL, respectively.
# STZ-diabetic mice (IDDM) [3] = assay: Plasma insulin levels before and after treatment (Insulin ELISA), STZ-diabetic mice; conditions: for Plasma insulin, Pre-treatment: before treatment; for Plasma insulin, post-treatment: one hour after treatment
# Experimental: (§4) Normal mice, STZ-induced diabetic mice, and diet-induced diabetic mice were administered with a vehicle control, borapetoside A (5.0 mg/kg), borapetoside C (at various doses), glibenclamide (5.0 mg/kg) or metformin (500 mg/kg) by intraperitoneal injection. These mice were examined for their blood insulin levels before and one hour after treatment, using the Insulin(Rat) ELISA kit obtained from Penisula Lab. Inc., San Carlos, Calif., USA.
# normal mice [4] = assay: Plasma insulin levels before and after treatment (Insulin ELISA), normal mice; conditions: 5.0 mg/kg i.p.; for Plasma insulin, Pre-treatment: before treatment; for Plasma insulin, post-treatment: one hour after treatment
# Experimental: as §4
# [5] = test system: STZ-induced diabetic mice; assay: Lowering plasma glucose level, intraperitoneal injection, STZ-induced diabetic mice (type I diabetes model); conditions: one hour after administration
# Experimental: as §1, §2, §3
# [6] = test system: Diet-induced diabetic (NIDDM) mice; assay: Plasma insulin levels before and after treatment (Insulin ELISA), diet-induced diabetic mice; conditions: 5.0 mg/kg i.p.; for Plasma insulin, Pre-treatment: before treatment; for Plasma insulin, post-treatment: one hour after treatment
# Experimental: as §4
# [7] = test system: Diet-induced diabetic mice (NIDDM); assay: Lowering plasma glucose levels via oral administration, diet-induced diabetic mice; conditions: oral 10.0 mg/kg, sixty minutes after treatment, mean ± SEM, six animals
# Experimental: (§5) Normal, STZ-induced diabetic mice, and diet-induced diabetic mice were administered orally with 10.0 mg/kg borapetoside C, glibenclamide or metformin as a positive control, and a vehicle control. The plasma glucose levels of the treated mice were determined before and sixty minutes after treatment and the results thus obtained were shown in Table 3 below.
# [8] = test system: DIO-induced diabetic mice; assay: Intraperitoneal glucose tolerance test (IPGTT), DIO-induced diabetic mice; conditions: diet-induced diabetic mice, borapetoside C 5.0 mg/kg
# Experimental: (§6) Normal ICR mice and DIO-induced diabetic mice, treated with borapetoside C (5.0 mg/kg), a vehicle control, or glibenclamide (positive control), were subjected to an intraperitoneal glucose tolerance test (IPGTT) as described in Lamont et al., Diabetes 2008; 57: 190-198. More specifically, glucose (2.0 mg/g body weight) was administered via IP injection to normal and DIO mice and blood samples were drawn from the treated mice before and 30, 60, 120, and 150 min after glucose administration for examination of glucose levels.
# In diet-induced diabetic mice treated with borapetoside C, the vehicle control, and glibenclamide, the basal plasma glucose concentrations were 181.6±12.3 mg/dL, 183.1±2.9 mg/dL, and 185.3±7.7 mg/dL, respectively. Thirty minutes after intraperitoneal glucose injection, the plasma glucose concentration was elevated to 405.6±8.9 mg/dL in vehicle-treated mice, to 343.5±11.2 mg/dL in borapetoside C-treated mice, or to 339.1±15.4 mg/dL in glibenclamide-treated mice.
# normal mice [9] = assay: Lowering plasma glucose levels via oral administration, normal mice; conditions: oral 10.0 mg/kg, sixty minutes after treatment, mean ± SEM, six animals
# Experimental: as §5
# Normal ICR mice = assay: Intraperitoneal glucose tolerance test (IPGTT), normal ICR mice; conditions: borapetoside C 5.0 mg/kg
# Experimental: as §6
# In normal mice treated with borapetoside C, the vehicle control, and glibenclamide, the basal plasma glucose concentrations were 106.8±4.7 mg/dL, 114.7±4.6 mg/dL, and 104.9±3.1 mg/dL, respectively. Thirty minutes after intraperitoneal glucose injection, the plasma glucose concentration was elevated to 346.2±14.7 mg/dL in vehicle-treated mice, to 292.9±10.9 mg/dL in borapetoside C-treated mice, or to 273.4±13.6 mg/dL in glibenclamide-treated mice.
# [10] = test system: DIO-induced diabetic mice(NIDDM); assay: Glycogen content in skeletal muscle, DIO-induced diabetic mice; conditions: 30 minutes after injection
# Experimental: (§7) Normal, STZ-induced diabetic, and DIO-induced diabetic mice were intraeritoneally injected with borapetoside C (5 mg/kg) and Actrapid (0.5 IU/kg; a short-acting insulin provided by Novo Nordisk) or metformin (500 mg/kg). Their glycogen contents in skeletal muscle were determined 30 minutes after injections.
# STZ-diabetic mice (IDDM) [11] = assay: Lowering plasma glucose levels via oral administration, STZ-diabetic mice; conditions: oral 500.0 mg/kg, sixty minutes after treatment, mean ± SEM, six animals
# Experimental: as §5
# [12] = test system: liver phosphoenolpyruvate carboxykinase (PEPCK); assay: Liver PEPCK levels by western blot in STZ-induced mice; conditions: borapetoside C 5.0 mg/kg, twice per day for 7 days, insulin dose not given
# Experimental: To characterize the effect of borapetoside C on liver glucose utilization, levels of liver phosphoenolpyruvate carboxykinase (PEPCK) were examined by western blot analysis in STZ-induced mice treated with borapetoside C (5.0 mg/kg, twice per day for 7 days), insulin, or a vehicle control.
# normal mice [13] = assay: Glycogen content in skeletal muscle, normal mice; conditions: 0.5 IU/kg i.p., 30 minutes after injection
# Experimental: as §7
# normal mice [14] = assay: Insulin sensitivity: plasma glucose reduction with insulin plus borapetoside C or vehicle, normal mice; conditions: thirty minutes after insulin
# Experimental: (§8) The effect of borapetoside C on insulin sensitivity was tested following the method described in Liu, et al., Clinical and Experimental Pharmacology and Physiology 2005; 32: 649-654. Normal mice (n=6), STZ-induced diabetic mice (n=5), and DIO-induced diabetic mice (n=7) were treated with insulin at various doses (i.e., 0.1 IU/kg, 0.5 IU/kg, and 1.0 IU/kg) together with either borapetoside C (0.1 mg/kg) or a vehicle control. Their plasma glucose levels were examined before and thirty minutes after insulin administration. The activity of lowering plasma glucose levels (AL) was calculated following the formula described in Example 2 above.
# [15] = test system: DIO-induced diabetic mice; assay: Insulin sensitivity: plasma glucose reduction with insulin plus borapetoside C or vehicle, DIO-induced diabetic mice; conditions: thirty minutes after insulin
# Experimental: as §8
# [16] = test system: STZ-induced diabetic mice; assay: Insulin sensitivity: plasma glucose reduction with insulin plus borapetoside C or vehicle, STZ-induced diabetic mice; conditions: thirty minutes after insulin
# Experimental: as §8
# STZ-diabetic mice(IDDM) = assay: Glycogen content in skeletal muscle, STZ-diabetic mice; conditions: 0.5 IU/kg i.p., 30 minutes after injection
# Experimental: as §7
# [17] = 5.0 mg/kg intraperitoneal injection
# [18] = 500.0 mg/kg intraperitoneal injection
# [19] = Insulin 0.1 IU/kg together with Vehicle
# [20] = Insulin 0.5 IU/kg together with Vehicle
# [21] = Insulin 1.0 IU/kg together with Vehicle
compound,measurement,setting,value
C[C@@]12C[C@@H](c3ccoc3)OC(=O)[C@@H]1C[C@@H]1OC(=O)[C@@]3(O)[C@@H](O[C@@H]4O[C@H](CO)[C@@H](O)[C@H](O)[C@H]4O)CC[C@@H]2[C@@]13C [borapetoside A],Activities of Lowering Plasma Glucose Levels (AL),normal mice [1]; [17],49.4 ± 4.8%
same,AL (activity of lowering plasma glucose levels),[2]; [17],29.7±6.1%
same,"Plasma insulin, Pre-treatment",STZ-diabetic mice (IDDM) [3]; 5.0 mg/kg i.p.,16.0 ± 4.1 pmol/L
same,"Plasma insulin, post-treatment",STZ-diabetic mice (IDDM) [3]; 5.0 mg/kg i.p.,18.7 ± 8.4 pmol/L
same,"Plasma insulin, Pre-treatment",normal mice [4],56.0 ± 2.8 pmol/L
same,"Plasma insulin, post-treatment",normal mice [4],117.6 ± 10.8 pmol/L
same,Activities of Lowering Plasma Glucose Levels (AL),[5]; [17],54.3 ± 6.3%
same,"Plasma insulin, Pre-treatment",[6],106.6 ± 14.6 pmol/L
same,"Plasma insulin, post-treatment",[6],173.8 ± 26.9 pmol/L
"COc1ccc(Cl)cc1C(=O)NCCc1ccc(S(=O)(=O)NC(=O)NC2CCCCC2)cc1 [glibenclamide, reference compound]",Activities of Lowering Plasma Glucose Levels (AL),normal mice [1]; [17],19.3 ± 1.6%
same,AL (activity of lowering plasma glucose levels),[2]; [17],25.8±2.1%
same,"Plasma insulin, Pre-treatment",normal mice [4],50.8 ± 3.6 pmol/L
same,"Plasma insulin, post-treatment",normal mice [4],149.5 ± 15.0 pmol/L
same,Activity of lowing plasma glucose levels (%),[7],34.9 ± 4.0 %
same,Activities of Lowering Plasma Glucose Levels (AL),[5]; [17],3.2 ± 1.9%
same,basal plasma glucose concentration (IPGTT),[8]; before glucose injection,185.3 ± 7.7 mg/dL
same,plasma glucose concentration thirty minutes after intraperitoneal glucose injection (IPGTT),"[8]; glucose 2.0 mg/g body weight IP, vehicle 405.6±8.9",339.1 ± 15.4 mg/dL
same,Activity of lowing plasma glucose levels (%),normal mice [9],25.9 ± 3.5 %
same,"Plasma insulin, Pre-treatment",[6],119.3 ± 9.6 pmol/L
same,"Plasma insulin, post-treatment",[6],197.0 ± 18.8 pmol/L
same,basal plasma glucose concentration (IPGTT),Normal ICR mice; before glucose injection,104.9 ± 3.1 mg/dL
same,plasma glucose concentration thirty minutes after intraperitoneal glucose injection (IPGTT),"Normal ICR mice; glucose 2.0 mg/g body weight IP, vehicle 346.2±14.7",273.4 ± 13.6 mg/dL
"CN(C)C(=N)N=C(N)N [metformin, reference compound]",Activities of Lowering Plasma Glucose Levels (AL),normal mice [1]; [18],20.0 ± 2.5%
same,AL (activity of lowering plasma glucose levels),[2]; [18],30.7±0.6%
same,"Plasma insulin, post-treatment",STZ-diabetic mice (IDDM) [3]; 500 mg/kg i.p.,15.1 ± 1.5 pmol/L
same,"Plasma insulin, Pre-treatment",STZ-diabetic mice (IDDM) [3],13.5 ± 1.1 pmol/L
same,Glycogen content (μmol/g wet weight),[10]; 500 mg/kg i.p.,23.5 ± 0.9 μmol/g wet weight
same,Activities of Lowering Plasma Glucose Levels (AL),[5]; intraperitoneal injection,34.1 ± 5.5%
same,Activity of lowing plasma glucose levels (%),STZ-diabetic mice (IDDM) [11],18.1 ± 1.9 %
"Insulin: Actrapid, a short-acting insulin provided by Novo Nordisk [reference compound]",liver PEPCK levels versus vehicle control-treated mice (western blot),[12],much lower
same,Glycogen content (μmol/g wet weight),normal mice [13],30.2 ± 2.0 μmol/g wet weight
same,AL (%),normal mice [14]; [19],14.6 ± 0.8%
same,AL (%),normal mice [14]; [20],37.5 ± 1.1%
same,AL (%),normal mice [14]; [21],56.8 ± 1.9%
same,Glycogen content (μmol/g wet weight),[10]; 0.5 IU/kg i.p.,20.2 ± 0.6 μmol/g wet weight
same,AL (%),[15]; [19],19.5 ± 1.5%
same,AL (%),[15]; [20],27.5 ± 2.6%
same,AL (%),[15]; [21],32.0 ± 1.1%
same,AL (%),[16]; [19],8.7 ± 1.6%
same,AL (%),[16]; [20],11.5 ± 0.6%
same,AL (%),[16]; [21],24.0 ± 1.3%
same,Glycogen content (μmol/g wet weight),STZ-diabetic mice(IDDM),30.0 ± 1.0 μmol/g wet weight
